Experimental data published in PubChem BioAssay AID1963835 (Molecular Pharmacology Branch, DTP, NCI, 2024).

Tested on: 699152-130-R-J1-PDC complex spheroid viability
Experiment: Anticancer human tumor 699152-130-R-J1-PDC patient-derived pancreatic carcinoma cell line growth inhibition [POLQ]
Conditions: for IC50: curve of first compound; for viability, T/C: stronger effect = lower value; active = viability on the fitted dose curve at most 10% of control; inactive = the rest
How it was run: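 Patient-derived tumour cells were co-cultured with HUVEC and mesenchymal stem cells as multicellular spheroids at 37 °C. They were treated with POLQ inhibitors (novobiocin, ART-558, RP6685) alone or combined with other agents. Top concentrations were at or near clinical Cmax (otherwise 10 microM; SN-38 at 1 microM), decreasing in half-log steps.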

[1] = second compound 0.0316 µM, first compound 0.0316 µM
[2] = second compound 0.0316 µM, first compound 0.1 µM
[3] = second compound 0.0316 µM, first compound 0.316 µM
[4] = second compound 0.0316 µM, first compound 1 µM
[5] = second compound 0.0316 µM, first compound 3.16 µM
[6] = second compound 0.0316 µM, first compound 10 µM
[7] = second compound 0.1 µM, first compound 0.0316 µM
[8] = second compound 0.1 µM, first compound 0.1 µM
[9] = second compound 0.1 µM, first compound 0.316 µM
[10] = second compound 0.1 µM, first compound 1 µM
[11] = second compound 0.1 µM, first compound 3.16 µM
[12] = second compound 0.1 µM, first compound 10 µM
[13] = second compound 0.316 µM, first compound 0.0316 µM
[14] = second compound 0.316 µM, first compound 0.1 µM
[15] = second compound 0.316 µM, first compound 0.316 µM
[16] = second compound 0.316 µM, first compound 1 µM
[17] = second compound 0.316 µM, first compound 3.16 µM
[18] = second compound 0.316 µM, first compound 10 µM
[19] = second compound 1 µM, first compound 0.0316 µM
[20] = second compound 1 µM, first compound 0.1 µM
[21] = second compound 1 µM, first compound 0.316 µM
[22] = second compound 1 µM, first compound 1 µM
[23] = second compound 1 µM, first compound 3.16 µM
[24] = second compound 1 µM, first compound 10 µM
[25] = second compound 3.16 µM, first compound 0.0316 µM
[26] = second compound 3.16 µM, first compound 0.1 µM
[27] = second compound 3.16 µM, first compound 0.316 µM
[28] = second compound 3.16 µM, first compound 1 µM
[29] = second compound 3.16 µM, first compound 3.16 µM
[30] = second compound 3.16 µM, first compound 10 µM
[31] = second compound 10 µM, first compound 0.0316 µM
[32] = second compound 10 µM, first compound 0.1 µM
[33] = second compound 10 µM, first compound 0.316 µM
[34] = second compound 10 µM, first compound 1 µM
[35] = second compound 10 µM, first compound 3.16 µM
[36] = second compound 10 µM, first compound 10 µM
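Also: spheroids exposed to agents for 7 days before viability reading.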
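For viability, T/C in this document: percent of DMSO vehicle control viability so 100% = vehicle and 0% = no viable signal.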

COc1cccc2c1C(=O)c1c(O)c3c(c(O)c1C2=O)CC(O)(C(=O)CO)CC3OC1CC(N)C(O)C(C)O1 (stereo not drawn) + COC1C(OC(N)=O)C(O)C(Oc2ccc3c(O)c(NC(=O)c4ccc(O)c(CC=C(C)C)c4)c(=O)oc3c2C)OC1(C)C
0.284 µM: IC50 (second compound 0.0316 µM)
0.304 µM: IC50 (second compound 10 µM)
active: viability, T/C [30] 10.6%
0.244 µM: IC50 (second compound 0.316 µM)
0.235 µM: IC50 (second compound 0.1 µM)
0.225 µM: IC50 (second compound 1 µM)
0.3 µM: IC50 (second compound 3.16 µM)
inactive: viability, T/C [1] 82.1% | viability, T/C [2] 92.9% | viability, T/C [3] 43.7% | viability, T/C [4] 24.3% | viability, T/C [5] 3.71% | viability, T/C [6] 9.4% | viability, T/C [7] 79% | viability, T/C [8] 86.8% | viability, T/C [9] 38.5% | viability, T/C [10] 27% | viability, T/C [11] 3.59% | viability, T/C [12] 13.3% | viability, T/C [13] 66.8% | viability, T/C [14] 97.2% | viability, T/C [15] 40.7% | viability, T/C [16] 26.1% | viability, T/C [17] 2.4% | viability, T/C [18] 10.4% | viability, T/C [19] 69.7% | viability, T/C [20] 96.7% | viability, T/C [21] 35.9% | viability, T/C [22] 27.5% | viability, T/C [23] 2.69% | viability, T/C [24] 12.1% | viability, T/C [25] 73% | viability, T/C [26] 88.1% | viability, T/C [27] 41.5% | viability, T/C [28] 28% | viability, T/C [29] 3.59% | viability, T/C [31] 76% | viability, T/C [32] 95.2% | viability, T/C [33] 48.8% | viability, T/C [34] 21.6% | viability, T/C [35] 6.39% | viability, T/C [36] 13.2%

O=C(c1cc(Cc2n[nH]c(=O)c3ccccc23)ccc1F)N1CCN(C(=O)C2CC2)CC1 + Cc1cccc(N(C)C(=O)C2C(O)CCN2c2nc(C)cc(C(F)(F)F)c2C#N)c1
inactive: viability, T/C [1] 91.2% | viability, T/C [2] 96.4% | viability, T/C [3] 82.7% | viability, T/C [4] 96.1% | viability, T/C [5] 104% | viability, T/C [6] 69.6% | viability, T/C [7] 94% | viability, T/C [8] 104% | viability, T/C [9] 93.1% | viability, T/C [10] 94.8% | viability, T/C [11] 99.5% | viability, T/C [12] 75.5% | viability, T/C [13] 88.3% | viability, T/C [14] 97.1% | viability, T/C [15] 97.3% | viability, T/C [16] 111% | viability, T/C [17] 107% | viability, T/C [18] 81% | viability, T/C [19] 103% | viability, T/C [20] 94.8% | viability, T/C [21] 92.4% | viability, T/C [22] 102% | viability, T/C [23] 87.3% | viability, T/C [24] 75.7% | viability, T/C [25] 101% | viability, T/C [26] 104% | viability, T/C [27] 91.1% | viability, T/C [28] 97.1% | viability, T/C [29] 92.6% | viability, T/C [30] 72% | viability, T/C [31] 94.6% | viability, T/C [32] 90.6% | viability, T/C [33] 105% | viability, T/C [34] 84.9% | viability, T/C [35] 99.1% | viability, T/C [36] 78.9%
> 10 µM: IC50 (second compound 0.0316 µM) | IC50 (second compound 0.1 µM) | IC50 (second compound 0.316 µM) | IC50 (second compound 1 µM) | IC50 (second compound 3.16 µM) | IC50 (second compound 10 µM)

CNCc1ccc(-c2[nH]c3cc(F)cc4c3c2CCNC4=O)cc1 + Nc1ccc(C#CCN(C(=O)Cc2ncc(C(F)(F)F)cc2C(F)(F)F)c2ccc(F)cc2)nn1
> 10 µM: IC50 (second compound 0.0316 µM) | IC50 (second compound 0.1 µM) | IC50 (second compound 0.316 µM) | IC50 (second compound 1 µM) | IC50 (second compound 3.16 µM) | IC50 (second compound 10 µM)
inactive: viability, T/C [1] 103% | viability, T/C [2] 98.8% | viability, T/C [3] 95.9% | viability, T/C [4] 115% | viability, T/C [5] 115% | viability, T/C [6] 123% | viability, T/C [7] 95.8% | viability, T/C [8] 104% | viability, T/C [9] 100% | viability, T/C [10] 105% | viability, T/C [11] 113% | viability, T/C [12] 118% | viability, T/C [13] 85.2% | viability, T/C [14] 109% | viability, T/C [15] 105% | viability, T/C [16] 102% | viability, T/C [17] 127% | viability, T/C [18] 132% | viability, T/C [19] 94.9% | viability, T/C [20] 90% | viability, T/C [21] 100% | viability, T/C [22] 94.6% | viability, T/C [23] 112% | viability, T/C [24] 132% | viability, T/C [25] 105% | viability, T/C [26] 93.6% | viability, T/C [27] 109% | viability, T/C [28] 104% | viability, T/C [29] 105% | viability, T/C [30] 122% | viability, T/C [31] 99.7% | viability, T/C [32] 104% | viability, T/C [33] 107% | viability, T/C [34] 107% | viability, T/C [35] 130% | viability, T/C [36] 120%

O=C(Nc1ccc(O)c(NS(=O)(=O)c2ccc(F)cc2)c1)c1ccc(-c2ccccc2)cc1 + COC1C(OC(N)=O)C(O)C(Oc2ccc3c(O)c(NC(=O)c4ccc(O)c(CC=C(C)C)c4)c(=O)oc3c2C)OC1(C)C
> 10 µM: IC50 (second compound 0.0316 µM) | IC50 (second compound 0.1 µM) | IC50 (second compound 0.316 µM) | IC50 (second compound 1 µM) | IC50 (second compound 3.16 µM) | IC50 (second compound 10 µM)
inactive: viability, T/C [1] 105% | viability, T/C [2] 123% | viability, T/C [3] 117% | viability, T/C [4] 104% | viability, T/C [5] 122% | viability, T/C [6] 80.8% | viability, T/C [7] 103% | viability, T/C [8] 104% | viability, T/C [9] 117% | viability, T/C [10] 101% | viability, T/C [11] 101% | viability, T/C [12] 94.6% | viability, T/C [13] 103% | viability, T/C [14] 101% | viability, T/C [15] 95.7% | viability, T/C [16] 101% | viability, T/C [17] 117% | viability, T/C [18] 77.3% | viability, T/C [19] 115% | viability, T/C [20] 99.6% | viability, T/C [21] 97.2% | viability, T/C [22] 94.5% | viability, T/C [23] 103% | viability, T/C [24] 82.3% | viability, T/C [25] 108% | viability, T/C [26] 111% | viability, T/C [27] 113% | viability, T/C [28] 119% | viability, T/C [29] 105% | viability, T/C [30] 89.5% | viability, T/C [31] 95.3% | viability, T/C [32] 107% | viability, T/C [33] 102% | viability, T/C [34] 95.5% | viability, T/C [35] 103% | viability, T/C [36] 86.3%
